Here are results for one compound from PMC9600589, “The Heptaprenyl Diphosphate Synthase (Coq1) Is the Target of a Lipophilic Bisphosphonate That Protects Mice against Toxoplasma gondii Infection” (mBio, 2022).

Data set [1] deals with T. gondii RH parental strain. Put plainly: Plaque assay measuring growth reversibility after drug removal. The data set is classed as cell-based, Toxoplasma gondii. Conditions: 7 days with 1 μM or 2 μM, then 7 days without drug.
The test system of data set [2] is T. cruzi. Further details: method as in PMID 24789335. The settings on record: cited from earlier work.
In data set [3] the test system is hTERT cells. The data set is described as follows: Cytotoxicity to hTERT cells (alamarBlue). The settings on record: for % Inhibition (cytotoxicity): hTERT cells. Here is the method:
The cytotoxicity was tested using an alamarBlue assay as described by Recher et al. ([67]).

The test system of data set [4] is T. gondii RH strain. The data set is described as follows: Acute lethal infection of mice with RH tachyzoites. Format: in vivo, Swiss Webster mice. The settings on record: mice infected with 100 RH tachyzoites, intraperitoneal, daily for 10 days from 6 h postinfection. Here is the method: (§1) At this point, live mice were inoculated with δ-luciferin for visualization of the infection in an IVIS illumination system ([34]).
Experiments were carried out as described previously ([49]) using 100 T. gondii tachyzoites of the RH strain to infect Webster mice. Drugs were dissolved in 10% kolliphor HS 15 and were inoculated intraperitoneally. Treatment was initiated 6 h after infection and administered daily for 10 days.

Data set [5] concerns T. gondii RH-cLuc-GFP. The data set is described as follows: Dissemination of infection, luciferase-expressing RH parasites, in vivo imaging. Further details: species or system Swiss Webster mice. Conditions: 1 mg/kg single daily dose for 8 days.
Description: as §1

In the case of `CCCCCCCCCCn1cc[n+](CC(P(=O)([O-])O)P(=O)(O)O)c1` (stereo not shown) [BPH-1218], the “reversibility of growth inhibition after drug removal” value in data set [1] was “irreversible”. For the same compound, the “decrease in UQ9 biosynthesis” value in data set [2] is given as 40%. In addition, the “toxicity against human fibroblast cells” value in data set [3] is “very little toxicity”. For the same compound, the “% Inhibition (cytotoxicity)” value in data set [3] (at 4X EC50 (concentration in μM in brackets)) stood at 4.30 ± 2.31%; in data set [3] (at 10X EC50 (concentration in μM in brackets)) it was 10.28 ± 1.07%. Also, the ED50 in data set [4] amounted to 0.69 mg/kg/day. Moreover, the “effect on virulence and dissemination of the infection” value in data set [5] was “remarkable effect on both virulence and dissemination of the infection”.
